# Test results reported in publication PMC10945555, “Improving Activity of New Arylurea Agents against Multidrug-Resistant and Biofilm-Producing Staphylococcus epidermidis” (ACS Medicinal Chemistry Letters, 2024).
# Experiments:
# BJ cells = assay: Cytotoxicity, MTT assay, skin fibroblasts; type: cell-based, human; conditions: Homo sapiens, MTT, 24 h, n = 3
# Procedure: The following cell models were used in the research: rat cardiomyocytes (H9c2 line) and human skin fibroblasts (BJ line). All cell lines used in the work are commercially available and were purchased from ATCC banks (the American Type Culture Collection, Manassas, VI, USA). Cell cultures were carried out in an incubator under standard conditions (37°C, 5% CO 2).
# Culture media (Dulbecco's Modified Eagle's Medium -DMEM (H9c2) and Eagle's Minimum Essential Medium-EMEM (BJ) were supplemented with 10% bovine serum and a 1% mixture of penicillin and streptomycin antibiotics. […]
# doxorubicin (a cytotoxic drug) were used as reference and positive control, respectively. […]
# solution (5 mg/mL) was transferred into culture medium of incubated cells. After 3 h, once dark crystals of formazan were produced in cells, medium was aspirated and 100 μ L of DMSO was added to dissolve formazan. Absorbance of DMSO solution was read on a multiwell plate reader (Spectra Max iD3, Molecular Devices) at 570 nm. In order to determine viability, absorbance of experimental wells was divided by absorbance of contro l well (not treated) and multiplied by 100 (%). Three separate experiments were performed. IC 50 was calculated using non-linear regression method in OriginPro software. […]
# [1] = test system: biofilm-producing Staphylococcus epidermidis strains; assay: Inhibition of biofilm formation (MBIC, resazurin); type: cell-based
# Procedure: After 24 hours incubation each well of
# concentration of 4 mg/mL was added. […]
# [2] = test system: biofilm-producing Staphylococcus epidermidis strains; assay: Biofilm eradication (MBEC Assay Kit); type: cell-based
# [3] = S. epidermidis ATCC 35984 (Table S4)
compound,measurement,setting,value
O=S(=O)(NC1CCN(CCC(Oc2ccc(C(F)(F)F)cc2)c2cccs2)CC1)c1cccc(Cl)c1 (stereo not shown) [Compound 14],IC50,BJ cells,9.9 µg/mL
same,MBIC,[1]; [3],31.25 µg/mL
same,MBIC50,[1]; Table S4 strains,125 µg/mL
same,MBIC,[1]; clinical strain 1 (Table S4),31.25 µg/mL
same,MBIC,[1]; clinical strain 2 (Table S4),125 µg/mL
same,MBIC,[1]; clinical strain 3 (Table S4),125 µg/mL
same,MBIC,[1]; clinical strain 4 (Table S4),125 µg/mL
same,MBIC,[1]; clinical strain 5 (Table S4),62.5 µg/mL
same,MBIC,[1]; clinical strain 6 (Table S4),125 µg/mL
same,MBIC,[1]; clinical strain 7 (Table S4),125 µg/mL
same,MBIC,[1]; clinical strain 8 (Table S4),15.6 µg/mL
same,MBIC,[1]; clinical strain 9 (Table S4),125 µg/mL
same,MBIC,[1]; clinical strain 11 (Table S4),125 µg/mL
same,MBIC,[1]; clinical strain 12 (Table S4),125 µg/mL
same,MBIC,[1]; clinical strain 13 (Table S4),62.5 µg/mL
same,MBIC,[1]; clinical strain 15 (Table S4),125 µg/mL
same,MBIC,[1]; clinical strain 16 (Table S4),31.25 µg/mL
same,MBIC,[1]; clinical strain 17 (Table S4),62.5 µg/mL
same,MBIC,[1]; clinical strain 19 (Table S4),31.25 µg/mL
same,MBIC,[1]; clinical strain 21 (Table S4),125 µg/mL
same,MBIC,[1]; clinical strain 22 (Table S4),125 µg/mL
same,MBIC,[1]; clinical strain 23 (Table S4),7.8 µg/mL
same,MBIC,"[1]; clinical strain 25 (Table S4, Figure 2)",31.25 µg/mL
same,MBIC,[1]; clinical strain 26 (Table S4),125 µg/mL
same,MBIC,[1]; clinical strain 27 (Table S4),250 µg/mL
same,MBIC,[1]; clinical strain 28 (Table S4),62.5 µg/mL
same,MBIC,[1]; clinical strain 29 (Table S4),62.5 µg/mL
same,MBIC,[1]; clinical strain 30 (Table S4),62.5 µg/mL
same,MBIC,[1]; clinical strain 33 (Table S4),125 µg/mL
same,MBIC,[1]; clinical strain 35 (Table S4),125 µg/mL
same,MBIC,[1]; clinical strain 36 (Table S4),62.5 µg/mL
same,MBIC,[1]; clinical strain 37 (Table S4),125 µg/mL
same,MBIC,[1]; clinical strain 39 (Table S4),15.6 µg/mL
same,MBIC,[1]; clinical strain 40 (Table S4),31.25 µg/mL
same,MBIC,[1]; clinical strain 41 (Table S4),125 µg/mL
same,MBIC,[1]; clinical strain 42 (Table S4),125 µg/mL
same,MBIC,[1]; clinical strain 43 (Table S4),250 µg/mL
same,MBIC,[1]; clinical strain 44 (Table S4),62.5 µg/mL
same,MBIC,[1]; clinical strain 45 (Table S4),125 µg/mL
same,MBIC,[1]; clinical strain 46 (Table S4),125 µg/mL
same,MBIC,[1]; clinical strain 47 (Table S4),62.5 µg/mL
same,MBIC,[1]; clinical strain 49 (Table S4),31.25 µg/mL
same,MBIC,[1]; clinical strain 51 (Table S4),125 µg/mL
same,MBIC,[1]; clinical strain 55 (Table S4),125 µg/mL
same,MBIC,[1]; clinical strain 58 (Table S4),125 µg/mL
same,MBIC,[1]; clinical strain 59 (Table S4),125 µg/mL
same,MBIC,[1]; clinical strain 65 (Table S4),125 µg/mL
same,MBIC,[1]; clinical strain 66 (Table S4),125 µg/mL
same,MBIC,[1]; clinical strain 67 (Table S4),125 µg/mL
same,MBIC,[1]; clinical strain 70 (Table S4),125 µg/mL
same,MBIC,[1]; clinical strain 73 (Table S4),31.25 µg/mL
same,MBIC,[1]; clinical strain 74 (Table S4),125 µg/mL
same,MBIC,[1]; clinical strain 75 (Table S4),31.25 µg/mL
same,MBIC,[1]; clinical strain 78 (Table S4),15.6 µg/mL
same,MBIC,[1]; clinical strain 79 (Table S4),31.25 µg/mL
same,MBEC,[2]; [3],31.25 µg/mL
same,MBEC50,[2]; Table S4 strains,125 µg/mL
same,MBEC,[2]; clinical strain 1 (Table S4),125 µg/mL
same,MBEC,[2]; clinical strain 2 (Table S4),125 µg/mL
same,MBEC,[2]; clinical strain 3 (Table S4),250 µg/mL
same,MBEC,[2]; clinical strain 4 (Table S4),125 µg/mL
same,MBEC,[2]; clinical strain 5 (Table S4),125 µg/mL
same,MBEC,[2]; clinical strain 6 (Table S4),125 µg/mL
same,MBEC,[2]; clinical strain 7 (Table S4),125 µg/mL
same,MBEC,[2]; clinical strain 8 (Table S4),31.25 µg/mL
same,MBEC,[2]; clinical strain 9 (Table S4),250 µg/mL
same,MBEC,[2]; clinical strain 11 (Table S4),250 µg/mL
same,MBEC,[2]; clinical strain 12 (Table S4),125 µg/mL
same,MBEC,[2]; clinical strain 13 (Table S4),62.5 µg/mL
same,MBEC,[2]; clinical strain 15 (Table S4),125 µg/mL
same,MBEC,[2]; clinical strain 16 (Table S4),62.5 µg/mL
same,MBEC,[2]; clinical strain 17 (Table S4),62.5 µg/mL
same,MBEC,[2]; clinical strain 19 (Table S4),31.25 µg/mL
same,MBEC,[2]; clinical strain 21 (Table S4),125 µg/mL
same,MBEC,[2]; clinical strain 22 (Table S4),125 µg/mL
same,MBEC,[2]; clinical strain 23 (Table S4),15.6 µg/mL
same,MBEC,[2]; clinical strain 25 (Table S4),31.25 µg/mL
same,MBEC,[2]; clinical strain 26 (Table S4),250 µg/mL
same,MBEC,[2]; clinical strain 27 (Table S4),250 µg/mL
same,MBEC,[2]; clinical strain 28 (Table S4),125 µg/mL
same,MBEC,[2]; clinical strain 29 (Table S4),125 µg/mL
same,MBEC,[2]; clinical strain 30 (Table S4),125 µg/mL
same,MBEC,[2]; clinical strain 33 (Table S4),125 µg/mL
same,MBEC,[2]; clinical strain 35 (Table S4),125 µg/mL
same,MBEC,[2]; clinical strain 36 (Table S4),125 µg/mL
same,MBEC,[2]; clinical strain 37 (Table S4),125 µg/mL
same,MBEC,[2]; clinical strain 39 (Table S4),31.25 µg/mL
same,MBEC,[2]; clinical strain 40 (Table S4),125 µg/mL
same,MBEC,[2]; clinical strain 41 (Table S4),125 µg/mL
same,MBEC,[2]; clinical strain 42 (Table S4),125 µg/mL
same,MBEC,[2]; clinical strain 43 (Table S4),250 µg/mL
same,MBEC,[2]; clinical strain 44 (Table S4),62.5 µg/mL
same,MBEC,[2]; clinical strain 45 (Table S4),125 µg/mL
same,MBEC,[2]; clinical strain 46 (Table S4),125 µg/mL
same,MBEC,[2]; clinical strain 47 (Table S4),62.5 µg/mL
same,MBEC,[2]; clinical strain 49 (Table S4),31.25 µg/mL
same,MBEC,[2]; clinical strain 51 (Table S4),125 µg/mL
same,MBEC,[2]; clinical strain 55 (Table S4),125 µg/mL
same,MBEC,[2]; clinical strain 58 (Table S4),125 µg/mL
same,MBEC,[2]; clinical strain 59 (Table S4),125 µg/mL
same,MBEC,[2]; clinical strain 65 (Table S4),125 µg/mL
same,MBEC,[2]; clinical strain 66 (Table S4),125 µg/mL
same,MBEC,[2]; clinical strain 67 (Table S4),125 µg/mL
same,MBEC,[2]; clinical strain 70 (Table S4),250 µg/mL
same,MBEC,[2]; clinical strain 73 (Table S4),31.25 µg/mL
same,MBEC,[2]; clinical strain 74 (Table S4),125 µg/mL
same,MBEC,[2]; clinical strain 75 (Table S4),31.25 µg/mL
same,MBEC,[2]; clinical strain 78 (Table S4),31.25 µg/mL
same,MBEC,[2]; clinical strain 79 (Table S4),31.25 µg/mL
